In patent publication US20240000736A1, “INHIBITION OF PROTEIN AMYLOID AGGREGATION USING FLUORINATED BENZENESULFONAMIDES” (Vilnius University, priority 2022, published 2024):

NS(=O)(=O)c1c(F)c(F)c(Sc2cccc(C(=O)O)c2)c(F)c1NC1CCCCCCCCCCC1 [MZ22-07, 3-[3-(Cyclododecylamino)-2,5,6-trifluoro-4-sulfamoyl-phenyl]sulfanylbenzoic acid]
melting point: 123 to 125 °C

NS(=O)(=O)c1c(F)c(F)c(SCc2ccc(C(=O)O)cc2)c(F)c1NC1CCCCCCCCC1 [MZ21-25, 4-[[3-(Cyclodecylamino)-2,5,6-trifluoro-4-sulfamoyl-phenyl]sulfanylmethyl]benzoic acid]
melting point: 176 °C

NS(=O)(=O)c1c(F)c(F)c(SCc2cccc(C(=O)O)c2)c(F)c1NC1CCCCCCCCCCC1 [MZ21-26, 3-[[3-(Cyclododecylamino)-2,5,6-trifluoro-4-sulfamoyl-phenyl]sulfanylmethyl]benzoic acid]
melting point: 109 to 111 °C

NS(=O)(=O)c1c(F)c(F)c(SCc2ccc(C(=O)O)cc2)c(F)c1NCC1CCCCCCC1 [MZ21-23, 4-[[3-(Cyclooctylmethylamino)-2,5,6-trifluoro-4-sulfamoyl-phenyl]sulfanylmethyl]benzoic acid]
melting point: 157 to 158 °C

CCCCCCCCNc1c(F)c(SCCc2ccc(C(=O)O)cc2)c(F)c(F)c1S(N)(=O)=O [MZ20-07, 4-[2-[2,3,6-Trifluoro-5-(octylamino)-4-sulfamoyl-phenyl]sulfanylethyl]benzoic acid]
melting point: 69 to 71 °C

NS(=O)(=O)c1c(F)c(F)c(Sc2ccc(CC(=O)O)cc2)c(F)c1NC1CCCCCCCCCCC1 [MZ21-18, 2-[4-(3-(Cyclododecylamino)-2,5,6-trifluoro-4-sulfamoylphenyl)sulfanylphenyl]acetic acid]
melting point: 148 to 150 °C

NS(=O)(=O)c1c(F)c(F)c(Sc2ccccc2C(=O)O)c(F)c1NC1CCCCCCCCCCC1 [MZ22-10, 2-[3-(Cyclododecylamino)-2,5,6-trifluoro-4-sulfamoyl-phenyl]sulfanylbenzoic acid]
melting point: 85 °C

CCCCCCCNc1c(F)c(SCCc2ccc(C(=O)O)cc2)c(F)c(F)c1S(N)(=O)=O [MZ21-11, 4-[2-[2,3,6-Trifluoro-5-(heptylamino)-4-sulfamoyl-phenyl]sulfanylethyl]benzoic acid]
melting point: 66 to 68 °C

CCCC(CCC)CCNc1c(F)c(SCc2ccc(C(=O)O)cc2)c(F)c(F)c1S(N)(=O)=O [MZ21-35, 4-[[2,3,6-Trifluoro-5-(3-propylhexylamino)-4-sulfamoyl-phenyl]sulfanylmethyl]benzoic acid]
melting point: 149 °C

NS(=O)(=O)c1c(F)c(F)c(Sc2ccc(C(=O)O)cc2)c(F)c1NC1CCCCCCCCCCC1 [MZ21-02, 4-[3-(Cyclododecylamino)-2,5,6-trifluoro-4-sulfamoyl-phenyl]sulfanylbenzoic acid]
melting point: 186 to 188 °C

NS(=O)(=O)c1c(F)c(F)c(SCc2ccc(C(=O)O)cc2)c(F)c1NC1CCCCCCCCCCC1 [MZ21-10, 4-[[3-(Cyclododecylamino)-2,5,6-trifluoro-4-sulfamoyl-phenyl]sulfanylmethyl]benzoic acid]
melting point: 190 to 191 °C

NS(=O)(=O)c1c(F)c(F)c(SCCc2ccc(C(=O)O)cc2)c(F)c1NC1CCCCCCC1 [VR16-10, 4-[2-[3-(Cyclooctylamino)-2,5,6-trifluoro-4-sulfamoyl-phenyl]sulfanylethyl]benzoic acid]
melting point: 166 to 168 °C

CCC(C)C(C)CCNc1c(F)c(SCc2ccc(C(=O)O)cc2)c(F)c(F)c1S(N)(=O)=O (stereo not drawn) [MZ21-40, 4-[[3-(3,4-Dimethylhexylamino)-2,5,6-trifluoro-4-sulfamoyl-phenyl]sulfanylmethyl]benzoic acid]
melting point: 133 °C

CCCCCCNc1c(F)c(SCCc2ccc(C(=O)O)cc2)c(F)c(F)c1S(N)(=O)=O [MZ21-06, 4-[2-[2,3,6-Trifluoro-5-(hexylamino)-4-sulfamoyl-phenyl]sulfanylethyl]benzoic acid]
melting point: 110 to 112 °C

CCCCCCCCCNc1c(F)c(SCCc2ccc(C(=O)O)cc2)c(F)c(F)c1S(N)(=O)=O [MZ21-12, 4-[2-[2,3,6-Trifluoro-5-(nonylamino)-4-sulfamoyl-phenyl]sulfanylethyl]benzoic acid]
melting point: 66 to 67 °C
